Measurements from US20010031790A1, “Treatment for complications of type 2 diabetes” (priority 1999, published 2001).
Entries after “also recorded” stand apart in the source; their conditions may differ. Marks after values point to notes of the source that are not given here.

Test: Clinical comparison of patient groups: plasma MG, D-lactate and HbA1c in type 2 diabetic subjects receiving low or high daily dosages of metformin
Format: in vivo, human
Settings: for DL (D-lactate) / HbA1c / MG (plasma methylglyoxal level): diabetic subjects
Text: The differences noted above are shown in the following summary of clinical results utilizing patient groups of individuals free of diabetes, those having diabetes but receiving no metformin, those having diabetes and receiving one gram or less of metformin daily and those receiving more than a gram of metformin daily, respectively. In Table 1, the number of patients in each group is noted as are the levels of plasma MG, DL(D-lactate) and […] (HbA1c).

SMILES: CN(C)C(=N)N=C(N)N [Metformin, N,N-dimethylimidocarbonimide diamide]
- DL (D-lactate) (metformin >1 g/day, n=13): 13.4 ± 4.6^c μmol/l
- HbA1c (metformin >1 g/day, n=13): 8.3 ± 1.0%
- MG (plasma methylglyoxal level) (metformin >1 g/day, n=13): 158.4 ± 44.2^b nmol/l
- DL (D-lactate) (metformin ≦1 g/day, n=17): 13.8 ± 7.7^c μmol/l
- HbA1c (metformin ≦1 g/day, n=17): 8.0 ± 1.1%
- MG (plasma methylglyoxal level) (metformin ≦1 g/day, n=17): 210.9 ± 51.0 nmol/L
- plasma level of MG, result in words (group taking high dosages of metformin, versus low dosage group and diabetics without metformin): significant lowering of plasma levels of MG; also recorded: significantly lower plasma level of MG
- difference in glycemic control between high and low dosages (high versus low dosage groups of metformin): little difference in glycemic control
- levels of D-lactate, result in words (metformin administration versus diabetic control group receiving no metformin, no significant difference between high and low dosages): increased
